Target: HCV NS3-4A serine protease (full-length NS3-4A protein) (Hepatitis C virus genotype 1a (isolate 1) (HCV), UniProt P26664)
Experiment: HCV NS3-4A protease assay
Assay type: biochemical, HCV genotype 1a
Conditions: strain HCV-1, fluorogenic peptide substrate, read-out: Protease assay Ex. 12 IC50
Protocol: The inhibitory activity of certain compounds of Table A against HCV NS3-4A serine protease is determined in a homogenous assay using the full-length NS3-4A protein (genotype 1a, strain HCV-1) and a commercially available internally-quenched fluorogenic peptide substrate as described by Taliani, M., et al. 1996 Anal. Biochem. 240:60-67, which is incorporated by reference in its entirety.

Chain of HCV NS3-4A serine protease (full-length NS3-4A protein) (P26664 1027-1657): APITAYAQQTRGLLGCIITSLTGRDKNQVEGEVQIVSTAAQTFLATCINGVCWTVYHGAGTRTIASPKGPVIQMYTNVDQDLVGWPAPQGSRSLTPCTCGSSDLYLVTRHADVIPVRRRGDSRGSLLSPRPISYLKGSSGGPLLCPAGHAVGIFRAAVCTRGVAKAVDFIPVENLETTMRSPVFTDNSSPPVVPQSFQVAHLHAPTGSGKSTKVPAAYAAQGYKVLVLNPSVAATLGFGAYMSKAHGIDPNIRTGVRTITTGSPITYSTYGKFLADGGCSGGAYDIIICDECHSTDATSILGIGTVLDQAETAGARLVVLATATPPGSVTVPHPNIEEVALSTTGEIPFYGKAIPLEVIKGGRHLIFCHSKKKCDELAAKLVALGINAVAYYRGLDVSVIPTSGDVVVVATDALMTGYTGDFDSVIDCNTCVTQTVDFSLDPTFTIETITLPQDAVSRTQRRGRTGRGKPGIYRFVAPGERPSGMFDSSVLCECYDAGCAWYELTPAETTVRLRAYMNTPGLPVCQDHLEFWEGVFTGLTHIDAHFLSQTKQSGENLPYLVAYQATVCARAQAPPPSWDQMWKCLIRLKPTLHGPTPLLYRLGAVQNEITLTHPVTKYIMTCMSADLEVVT
Chain of HCV NS3-4A serine protease (full-length NS3-4A protein) (P26664 1658-1711 partner): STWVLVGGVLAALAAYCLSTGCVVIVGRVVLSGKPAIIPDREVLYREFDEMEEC

SMILES | IC50
C=C[C@@H]1C[C@]1(NC(=O)[C@@H]1C[C@@]2(CN1C(=O)[C@@H](NC(=O)[C@@H](NC(=O)[C@@H]1CCCCN1C1CCCC1)C(C)(C)C)C(C)(C)C)C(C)(C)C21CCC1)C(=O)NS(=O)(=O)N1CCCC1 [Compound 31, (5R,8S)-7-[(2S)-2-{[(2S)-2-({[(2S)-1-cyclopentylpiperidin-2-yl]carbonyl}amino)-3,3-dimethylbutanoyl]amino}-3,3-dimethylbutanoyl]-10,10-dimethyl-N-{(1R,2S)-1-[(pyrrolidin-1-ylsulfonyl)carbamoyl]-2-vinylcyclopropyl}-7-azadispiro[3.0.4.1]decane-8-carboxamide] | 8 nM
C=C[C@@H]1C[C@]1(NC(=O)[C@@H]1C[C@@]2(CN1C(=O)[C@@H](NC(=O)[C@@H](NC(=O)c1cnc3ccccc3c1)C1CCCCC1)C(C)(C)C)C(C)(C)C21CCC1)C(=O)NS(=O)(=O)N1CCCC1 [Compound 196, (5R,8S)-7-[(2S)-2-({cyclohexyl[(quinolin-3-ylcarbonyl)amino]acetyl}amino)-3,3-dimethylbutanoyl]-10,10-dimethyl-N-{(1R,2S)-1-[(pyrrolidin-1-ylsulfonyl)carbamoyl]-2-vinylcyclopropyl}-7-azadispiro[3.0.4.1]decane-8-carboxamide] | 20 nM
C=C[C@@H]1C[C@]1(NC(=O)[C@@H]1C[C@@]2(CN1C(=O)[C@@H](NC(=O)[C@@H](NC(=O)[C@@H]1CCCCN1C(C)C)C(C)C)C(C)C)C(C)(C)C21CCC1)C(=O)NS(=O)(=O)N(CC)CC [Compound 130, (5R,8S)-N-[(1R,2S)-1-{[(diethylamino)sulfonyl]carbamoyl}-2-vinylcyclopropyl]-7-[(2S)-2-{[(2S)-2-({[(2S)-1-isopropylpiperidin-2-yl]carbonyl}amino)-3-methylbutanoyl]amino}-3-methylbutanoyl]-10,10-dimethyl-7-azadispiro[3.0.4.1]decane-8-carboxamide] | 8 nM
C=C[C@@H]1C[C@]1(NC(=O)[C@@H]1C[C@@]2(CN1C(=O)[C@@H](NC(=O)[C@@H](NC(=O)c1cnon1)C1CCCCC1)C(C)(C)C)C(C)(C)C21CCC1)C(=O)NS(=O)(=O)N1CCCC1 [Compound 201, (5R,8S)-7-[(2S)-2-({cyclohexyl[(1,2,5-oxadiazol-3-ylcarbonyl)amino]acetyl}amino)-3,3-dimethylbutanoyl]-10,10-dimethyl-N-{(1R,2S)-1-[(pyrrolidin-1-ylsulfonyl)carbamoyl]-2-vinylcyclopropyl}-7-azadispiro[3.0.4.1]decane-8-carboxamide] | 35 nM
C=C[C@@H]1C[C@]1(NC(=O)[C@@H]1C[C@@]2(CN1C(=O)[C@@H](NC(=O)[C@@H](NC(=O)[C@@H]1CCCN1CC)C1CCOCC1)C1(C)CCOCC1)C(C)(C)C21CCC1)C(=O)NS(=O)(=O)N1CCCC1 [Compound 129, (5R,8S)-7-[(2S)-2-{[(2S)-2-({[(2S)-1-ethylpyrrolidin-2-yl]carbonyl}amino)-2-(tetrahydro-2H-pyran-4-yl)acetyl]amino}-2-(4-methyltetrahydro-2H-pyran-4-yl)acetyl]-10,10-dimethyl-N-{(1R,2S)-1-[(pyrrolidin-1-ylsulfonyl)carbamoyl]-2-vinylcyclopropyl}-7-azadispiro[3.0.4.1]decane-8-carboxamide] | 6 nM
C=C[C@@H]1C[C@]1(NC(=O)[C@@H]1C[C@@]2(CN1C(=O)[C@@H](NC(=O)[C@@H](NC(=O)C1CN(C(C)C)C1)C1CCCCC1)C(C)(C)C)C(C)(C)C21CCC1)C(=O)NS(=O)(=O)N1CCCC1 [Compound 19, (5R,8S)-7-[(2S)-2-{[(2S)-2-cyclohexyl-2-{[(1-isopropylazetidin-3-yl)carbonyl]amino}acetyl]amino}-3,3-dimethylbutanoyl]-10,10-dimethyl-N-{(1R,2S)-1-[(pyrrolidin-1-ylsulfonyl)carbamoyl]-2-vinylcyclopropyl}-7-azadispiro[3.0.4.1]decane-8-carboxamide] | 55 nM
C=C[C@@H]1C[C@]1(NC(=O)[C@@H]1C[C@@]2(CN1C(=O)[C@@H](NC(=O)[C@@H](NC(=O)C(C)(C)N1CCCC1)C(C)(C)C)C(C)(C)C)C(C)(C)C21CCC1)C(=O)NS(=O)(=O)N1CCCC1 [Compound 10, (5R,8S)-7-[(2S)-2-({(2S)-3,3-dimethyl-2-[(2-methyl-2-pyrrolidin-1-ylpropanoyl)amino]butanoyl}amino)-3,3-dimethylbutanoyl]-10,10-dimethyl-N-{(1R,2S)-1-[(pyrrolidin-1-ylsulfonyl)carbamoyl]-2-vinylcyclopropyl}-7-azadispiro[3.0.4.1]decane-8-carboxamide] | 65 nM
C=C[C@@H]1C[C@]1(NC(=O)[C@@H]1C[C@@]2(CN1C(=O)[C@@H](NC(=O)[C@@H](NC(=O)[C@@H]1CCCCN1CC)c1ccccc1)C(C)(C)C)C(C)(C)C21CCC1)C(=O)NS(=O)(=O)N1CCCC1 [Compound 103, (5R,8S)-7-[(2S)-2-{[(2S)-2-({[(2S)-1-ethylpiperidin-2-yl]carbonyl}amino)-2-phenylacetyl]amino}-3,3-dimethylbutanoyl]-10,10-dimethyl-N-{(1R,2S)-1-[(pyrrolidin-1-ylsulfonyl)carbamoyl]-2-vinylcyclopropyl}-7-azadispiro[3.0.4.1]decane-8-carboxamide] | 20 nM
C=C[C@@H]1C[C@]1(NC(=O)C1C[C@@]2(CN1C(=O)[C@@H](NC(=O)[C@@H](NC(=O)[C@@H]1CCCCN1C(C)C)C(C)(C)C)C1CCOCC1)C(C)(C)C21CCC1)C(=O)NS(=O)(=O)N1CCCC1 (stereo partly drawn) [Compound 67, (5R)-7-[(2S)-2-[(N-{[(2S)-1-isopropylpiperidin-2-yl]carbonyl}-3-methyl-L-valyl)amino]-2-(tetrahydro-2H-pyran-4-yl)acetyl]-10,10-dimethyl-N-{(1R,2S)-1-[(pyrrolidin-1-ylsulfonyl)carbamoyl]-2-vinylcyclopropyl}-7-azadispiro[3.0.4.1]decane-8-carboxamide] | 20 nM
C=C[C@@H]1C[C@]1(NC(=O)[C@@H]1C[C@@]2(CN1C(=O)[C@@H](NC(=O)[C@@H](NC(=O)[C@@H]1CCCCN1C(C)C)C1CCCCC1)C(C)(C)C)C(C)(C)C21CCC1)C(=O)NS(=O)(=O)N(C)CC1CC1 [Compound 50, (5R,8S)-7-[(2S)-2-{[(2S)-2-cyclohexyl-2-({[(2S)-1-isopropylpiperidin-2-yl]carbonyl}amino)acetyl]amino}-3,3-dimethylbutanoyl]-N-[(1R,2S)-1-({[(cyclopropylmethyl)(methyl)amino]sulfonyl}carbamoyl)-2-vinylcyclopropyl]-10,10-dimethyl-7-azadispiro[3.0.4.1]decane-8-carboxamide] | 3.8 nM
C=C[C@@H]1C[C@]1(NC(=O)[C@@H]1C[C@@]2(CN1C(=O)[C@@H](NC(=O)[C@@H](NC(=O)[C@@H]1CCCCN1CC)C1CCCCC1)C1CCOCC1)C(C)(C)C21CCC1)C(=O)NS(=O)(=O)N(CC)CC [Compound 85, (5R,8S)-7-[(2S)-2-{[(2S)-2-cyclohexyl-2-({[(2S)-1-ethylpiperidin-2-yl]carbonyl}amino)acetyl]amino}-2-(tetrahydro-2H-pyran-4-yl)acetyl]-N-[(1R,2S)-1-{[(diethylamino)sulfonyl]carbamoyl}-2-vinylcyclopropyl]-10,10-dimethyl-7-azadispiro[3.0.4.1]decane-8-carboxamide] | 4.5 nM

Source: patent US8613914B2, “Peptidomimetic sulfamide compounds and antiviral uses thereof” (Novartis AG, priority 2009, dated 2013)
